Experimental data published in patent publication US10633367B2, “Fluorine- and/or deuterium-containing compounds for treating non-small cell lung cancer and related diseases” (X-Cutag Therapeutics, Inc., priority 2017, dated 2020).

Key:
[1] = tested on: NCI-H1975 NSCLC cells carrying activating EGFR T790M mutation; test: Cell viability of NCI-H1975 cells (CCK-8 assay); format: cell-based, human; conditions: 36 hour treatment, CCK-8, FIG. 13
Experimental: NCI-H1975 is a model human NSCLC cell line that expresses activating EGER-T790M mutant, resulting in uncontrolled cell proliferation. Efficient inhibition of EGFR tyrosine kinase activity by TKI can affect cell growth, causing cell death. Here the inventors studied the effect of F1-osimertinib on cell viability of NCI-H1975 cells by […] (Cell Counting Kit-8 (CCK-8), Bimake.com, Houston, Tex.). 4,000 exponentially growing cells in 100 ul culture media were seeded in triplicate into 96-well plates and cultured to 70-80% continency. Cells were treated with indicated concentration of F1-osimertinib for 36 hour. 10 ul/well CCK-8 were added and continuously incubated till the absorbance (OD) at 450 nm reaches 0.8 measured by a microplate reader. Medium only wells were served as blank control. The cell viability was calculated as follows: Cell viability (%)=[A(F1-osimertinib)−A(blank)]/[A(solvent)−A(blank)]×100%. A: OD value measured.

[2] = Co-incubation in rat plasma (ex-vivo stability, LC-MS/MS); format: in vitro ADME, Sprague-Dawley rat; conditions: after incubating for two hours, co-incubated, FIG. 10
Experimental: (§1) Briefly, 40 μL of osimertinib was co-incubated with an equal volume of one of the compounds described in this invention at the same concentration in blank plasma (human, beagle dog, Sprague-Dawley rat or CD-1 mouse). The tubes were incubated in a dry bath incubator for six time points ranging from 0 to 120 minutes. At each time point, the plasma was crashed with 200 μL internal standard working solution in acetonitrile, then vortexes and centrifuged. A portion of the supernatant was then transferred to autosampler vials for injection into the LC-MS/MS system. Chromatographic retention of osimertinib and the compounds described in the invention was obtained on an ACE 3 C18, 2.1×50 min, 3.0 μm column (Aberdeen, Scotland) under gradient conditions with a flow rate of 0.3 mL/minute. Analytes were detected by multiple reaction monitoring using an MDS Sciex API 4000 mass spectrometer (Applied Biosystems/MDS Sciex, Concord, Ontario, Canada) in positive mode. Data was captured using Analyst®, Version 1.6.2 (Applied Biosystems/MDS Sciex, Foster City, Calif.) and then exported to Excel® (Microsoft, Seattle, Wash.) for further data reduction.

[3] = Co-incubation in dog plasma (ex-vivo stability, LC-MS/MS); format: in vitro ADME; conditions: beagle plasma, after incubating for two hours, co-incubated, FIG. 11
Experimental: as §1

[4] = Co-incubation in mouse plasma (ex-vivo stability, LC-MS/MS); format: in vitro ADME, CD-1 mouse; conditions: after incubating for two hours, co-incubated, FIG. 12
Experimental: as §1

[5] = Co-incubation in human plasma (ex-vivo stability, LC-MS/MS); format: in vitro ADME; conditions: co-dosed with osimertinib at 1:1 ratio, 0 to 120 minutes, FIG. 9
Experimental: as §1

Structure (SMILES)	inhibition of NSCLC cell growth (cell viability) [1]	remaining percentage of the initial concentration [2]	remaining percentage of the initial concentration [3]	remaining percentage [4] [%]	stability when incubated in human plasma [5]
C=C(F)C(=O)Nc1cc(Nc2nccc(-c3cn(C)c4ccccc34)n2)c(OC)cc1N(C)CCN(C)C [F1-osimertinib]	significant inhibition of NSCLC cell growth				
[2H]C([2H])([2H])n1cc(-c2ccnc(Nc3cc(NC(=O)C(=C)F)c(N(C)CCN(C)C)cc3OC)n2)c2ccccc21 [F1-D3-osimertinib]	significant inhibition of NSCLC cell growth				
C=CC(=O)Nc1cc(Nc2nccc(-c3cn(C)c4ccccc34)n2)c(OC)cc1N(C)CCN(C)C [osimertinib, N-(2-{2-dimethylaminoethyl-methylamino}-4-methoxy-5-{[4-(1-methylindol-3-yl)pyrimidin-2-yl]amino}phenyl)prop-2-enamide]		around 35%	approximately 78%	92	decreased rapidly
